The source of these data is patent US12297220B2, “Phenethylamines and cathinones precursors” (Transcend Therapeutics, Inc., priority 2022, dated 2025).

The subject of one data set is healthy volunteers. Particulars: self-administration; cited from earlier work.
The test system of another data set is fear extinction recall. Particulars: 7.5 mg/kg, 30 minutes prior to extinction training; cited from earlier work.
The test system of the next data set is open field test. Particulars: cited from earlier work.
The next data set deals with PTSD. The conditions noted are these: clinical case series of 21 individuals; cited from earlier work.
Another data set deals with mouse model of PTSD. Kind of data set: Fear extinction recall in a mouse model of PTSD. In kind it is in vivo. Particulars: 30 mg/kg, IP. On the procedure: FIGS. 1A-1D: Methylone improves fear extinction recall in a mouse model of PTSD. (FIG. 1A) Schematic of experimental design. A single CS—US (tone-shock) pairing on day 1 was followed by 6 CS presentations in a novel context (context B). Methylone or saline vehicle was injected 30 min prior to extinction training on day 2. On day 3, the time spent freezing to the CS was quantified. […] (FIG. 1C) The time freezing before vs. during each of 6 cues on day 3 (to control for locomotor effects) are shown. There was a significant cue×drug interaction (F(5, 130)=2.409, p<0.05). […] N=12 for methylone group (30 mg/kg, IP, orange diamonds) and N=16 for saline control group (black squares). *p<0.05
Effective PTSD treatments facilitate the disassociation between a traumatic memory and the patient's fear response, making cues for the traumatic memory evoke less of a fear response. This is modeled in the mouse fear extinction paradigm which takes place over 3 days. On day 1 (fear conditioning), mice are trained to acquire a “traumatic memory,” namely associating the conditioned stimulus (CS, tone) to the unconditioned stimulus (US, foot shock). On day 2 (extinction training), they are trained to forget the traumatic memory association by presenting the CS 6 times (with no US) in a novel environment. On day 3 (extinction recall), the mice are “asked” if that tone (CS) still elicits a fearful response, as measured by the time spent freezing when the tone is presented. Less time freezing means better extinction recall. Drugs that improve extinction recall reduce freezing time on day 3, and, therefore, show potential as a PTSD treatment.
Using these methods, prodrugs are administered to mice and tested for efficacy in the fear extinction model to evaluate their efficacy to treat PTSD and other memory disorders.

The next data set relates to rat forced swim test. The data set can be described thus: Forced swim test (FST), antidepressant-like activity. The class given is in vivo. On the procedure:
The forced swim test (FST) is a classic model to assess the antidepressant-like activity of compounds that has been in use for over 40 years (Porsolt et al. (1977) Nature 266:730-732; Detke et al. (1995) Psychopharmacology 121:66-72). […] A single dose of 5 mg/kg methylone reduces immobility by approximately 50% compared to vehicle-treated controls, whereas a 15 mg/kg dose reduces immobility by nearly 100%. Accompanying changes in climbing and/or swimming behavior reflect noradrenergic and serotonergic activities of methylone, respectively.
All FST studies are performed and scored by an experimenter blind to treatment group and according to standard protocols. Briefly, rats are placed in a circular plexiglass container filled with water. Water temperature is maintained at 22-25° C. and changed for every animal. Day 1 (Training) consists of a 15 min acclimation trial, and Day 2 (Testing, 24 h later) consists of the 5 min test. A time sampling procedure is employed where animals are observed every 5 seconds for the duration of the test session (60 counts or 5 minutes) and scored for immobility (defined as the failure to struggle), swimming (defined as a circular movement around the tank), or climbing (defined as an upwards escape behavior). Data are expressed as the percent of the testing session (e.g., the number of immobility counts divided by 60). […]

For another data set, the system named is human hepatocytes. Kind of data set: Prodrug bioactivation / metabolic stability in hepatocytes. Particulars: t=60 minutes. In kind it is in vitro ADME. On the procedure:
(§1) Bioactivation Potential of Prodrug Candidates: After a prodrug is synthesized, its bioactivation potential to release methylone is assessed under in vitro conditions. As the prodrugs are designed to be enzymatically activated by esterases and amidases/peptidases found in the blood and/or the liver, each prodrug is incubated in human and rat whole blood as well as liver hepatocytes. In these assays, the percentage of released parent methylone and of remaining prodrug is measured at different timepoints for a period of 2 hours. A chemical stability assessment of each prodrug is also performed under various pH conditions to ensure that the methylone released is a result of enzymatic hydrolysis. Prodrugs that show in vitro bioactivation are then administered (IV/PO) to rats, and blood samples are collected to assess the pharmacokinetic profile of each prodrug.
For example, the metabolic stability of prodrug candidates to release methylone could be assessed in vitro according to the following protocol: cryopreserved human and rat hepatocytes are thawed in recovery media and diluted in plating media to a viable cell density of 1×10^6 cells/mL. Viability is determined by trypan blue exclusion. […] All samples, including analytical standards, are analyzed by LC-MS/MS to measure the concentration of methylone released and the concentration of the corresponding prodrug remaining. […]

Data set [1] can be described thus: Chemical stability in phosphate buffer without hepatocytes (negative control). The class given is physicochemical. The conditions noted are these: phosphate buffer pH 6.8 at 37° C., up to 2 hours. On the procedure:
as §1
When compound 50 was incubated with human hepatocytes under the conditions described above, at t=60 minutes, approximately 100% of the prodrug had been converted to methylone with a total recovery of approximately 100%.

Consider `CNC(C)Cc1ccc2c(c1)OCO2` (centres unmarked) [MDMA], for which, in the data set with healthy volunteers, the “systolic and diastolic blood pressure” value was “significant increase”. In addition, the “reduced freezing compared to saline injected controls (extinction recall)” value in the data set on fear extinction recall is 35%.
Take `CNC(C)C(=O)c1ccc2c(c1)OCO2` (centres unmarked) [Methylone, methylone]: in the data set on healthy volunteers, the heart rate entry was “increase in heart rate”; the “systolic and diastolic blood pressure” value is given as “significant increase”. Moreover, the “thigmotaxis (time spent hugging the perimeter of the open field)” value with open field test (5, 10, 20 mg/kg, SC, rats) is “reduce thigmotaxis”. Further, in the data set with open field test (rat, in vivo), the “locomotor activity in the OFT” value is on record as “increases locomotor activity” and the “time spent in the center vs the periphery in the OFT” value was “reduces time spent in the center vs the periphery”. Besides, the “patients with improved symptoms of PTSD” value with PTSD is on record as 81%. Moreover, in the data set on mouse model of PTSD, the fear extinction recall is recorded as “significantly improves fear extinction recall”. Moreover, the “Freezing time during the first cue on day 3 (extinction recall) compared to saline” value in the data set on mouse model of PTSD (30 min prior to extinction training, p<0.05) is recorded as “significantly reduced”. Also, the “locomotor changes on day 3” value in the data set with mouse model of PTSD (p>0.05) is listed as “No locomotor changes were observed”. The “antidepressant-like effect in the rat forced swim test” value with rat forced swim test is on record as “robust, dose-dependent antidepressant-like effect”.
Take `CC(OC(=O)C(C)C)OC(=O)N(C)C(C)C(=O)c1ccc2c(c1)OCO2` (centres unmarked) [compound 50, 1-(((1-(benzo[d][1,3]dioxol-5-yl)-1-oxopropan-2-yl)(methyl)carbamoyl)oxy)ethyl isobutyrate]: in the data set with human hepatocytes, the “prodrug converted to methylone” value is given as “approximately 100%”. Further, the “release of parent methylone in absence of hepatocytes” value in data set [1] is “no parent methylone was released”.
